These results are taken from US8314234B2, “Bicyclic pyrimidine kinase inhibitors” (Janssen Pharmaceutica N.V., priority 2006, dated 2012).

One assay deals with T1, EGFR (Homo sapiens, UniProt P00533).
T1 construct: intracellular portion of EGFR started at nucleotide 2189 (corresponding to amino acid 667) and ended at the termination codon; made in house; host or cells: Sf9 insect cells (baculovirus)
The assay is described as follows: EGFR Kinase Assay. Type of assay: biochemical. The note with it: test concentration of 2 μM. The text has this: The EGFR kinase used was a fusion of Glutathione-S-Transferase (GST) and a PCR amplified intracellular portion of EGFR (NM_005228). The intracellular portion of EGFR started at nucleotide 2189 (corresponding to amino acid 667) and ended at the termination codon. The portion was PCR amplified with primers that added the lambda attB sequences to each end, recombined into an entry vector, then into a GST destination vector (as described in Gateway Technologies Manual by Invitrogen Corporation, Carlsbad, Calif.).
The destination vector was recombined in the DH10BAC strain of bacteria to produce a bacmid. The bacmid was transfected into Sf9 cells and the supernatant containing the baculovirus was collected. The GSTEGFR protein was purified using large cultures of Sf9 cells infected with stock virus. After an appropriate period of time, the cells were collected and lysed. The GSTEGFR was then purified from the lysate on Glutathione-Sepharose columns (as described by Amersham Biosciences, Buckinghamshire, United Kingdom).
The EGFR substrate was prepared by biotinylating polyGluTyr (128 mg) (Sigma, St. Louis, Mo.) in a 1×PBS buffer incubated together with a 12-fold molar excess of Sulfo-NHS-LC-Biotin on ice for at least 2 hrs. The free biotin was separated from the biotinylated polyGluTyr on a gel filtration column.
A mixture of a 10× kinase buffer (500 mM Tris at pH 8.0, 100 mM Magnesium Chloride and 1 mM Sodium Vanadate), DTT (1 mM final from 500 mM stock), ATP (5 μM final from 10 mM stock), biotinylated polyGluTyr (10 μg/μL stock), γ-^33P ATP (10 μCi/μL stock) and water was added to each well (90 μL/well) of a Streptavidin Flashplate (Perkin Elmer, Wellesley, Mass.).
Test compound in 100% DMSO (2 μL) was added to the appropriate wells. Diluted GSTEGFR (1:300 dilution in 50 mM Tris at pH 8.0 and 0.1% bovine serum albumin) (10 μL) was added to the wells to initiate the reactions.
The plates were incubated at 30° C. for 1 hr with shaking. The reacted contents were removed and the plates were sequentially washed three times with a 1×PBS stop buffer (300 μL without Magnesium and Calcium) and 100 mM EDTA. After the final wash, the same stop buffer (200 μL) was added to the wells. The plates were then sealed and read on the TopCount scintillation counter.
Test compounds were assayed in triplicate at 16 concentrations at half-log dilutions starting at 200 uM. A maximum and minimum signal for the assay was determined on each plate. The percent inhibition of a test compound was calculated according to the formula
For a series of test concentrations, the IC50 was derived by graphing percent inhibition against the log of the concentrations tested for a given compound. The percent inhibition results are shown in Table 1 at a test concentration of 2 μM. For those compounds with an IC50, the IC50 value is shown in parentheses.

A further assay concerns the target T2, CDK1 (Homo sapiens, UniProt P06493).
T2 construct: purchased New England Biolabs, Beverly, Mass; 6020; host or cells: insect cells
The assay is described as follows: CDK-1 screening assay. It counts as biochemical. The protocol:
(§1) 70 μL of the kinase reaction mixture was dispensed into the well of a streptavidin coated FlashPlate™ (Cat. #SMP103, NEN, Boston, Mass.).
(§2) Test compound stock in 100% DMSO (1 μL) was added to the wells resulting in a final concentration of 1% DMSO in the reaction with a 100 μL final reaction volume. Each enzyme was diluted in 50 mM Tris-HCl pH=8.0, 0.1% BSA and 30 μL was added to each well to initiate the reaction. The reaction was incubated for one hour at 30° C. At the end of the 1 hr incubation, the reaction was terminated by aspirating the mixture from the plate and washing the wells twice with PBS containing 100 mM EDTA. The biotinylated peptide substrate became immobilized on the Flashplate and the incorporation of ^33P-γ-ATP was measured by reading the plate on a scintillation counter. Inhibition of the enzymatic activity was measured by observing a reduced amount of ^33P-γ-ATP incorporated into the immobilized peptide.
(§3) A maximum and minimum signal for the assay was determined on each plate. The percent inhibition of a test compound was calculated according to the formula: […]
(§4) The term “ND” means “not determined.”

A further assay addresses T3, CDK2 (Homo sapiens, UniProt P24941).
T3 construct: purchased Upstate Biotech, Lake Placid, N.Y
The assay is described as follows: CDK-2 screening assay. It counts as biochemical. Here is the method: as §1, §2
The CDK2 enzyme in complex with cyclin A is commercially available (Upstate Biotech, Lake Placid, N.Y.).
as §3, §4

For the next assay, the target named is VEGFR2 (Rattus norvegicus, UniProt O08775). The assay is described as follows: VEGFR2 screening assay. Type of assay: biochemical. Here is the method:
A kinase reaction mixture was prepared containing 50 mM Tris-HCl pH=8, 10 mM MgCl2, 0.1 mM […], 1 mM DTT, 10 μM ATP, 0.025 μM biotinylated histone-H1 peptide substrate and 0.2 μCuries per well ^33P-γ-ATP (2000-3000 Ci/mmol). 70 μL of the kinase reaction mixture was dispensed into the well of a streptavidin coated FlashPlate™ (Cat. #SMP103, NEN, Boston, Mass.).
as §2
The VEGF-R2 enzyme is a fusion protein containing a polyhistidine tag at the N terminus followed by amino acids 786 to 1343 of the rat VEGF-R2 kinase domain (Accession number U93306). The assay used 150 ng of the N-terminal biotinylated peptide biotin-[…]-amide SEQ ID NO: 2) (VEGF-R2) per well.
as §3
For a series of test concentrations, the IC50 was derived by graphing percent inhibition against the log of the concentrations tested for a given compound with results shown in Table 2. For those compounds without an IC50, the inhibition values in percent are shown at a test concentration of 2 μM. The term “ND” means “not determined.”

Assay [1] deals with HeLa cervical adenocarcinoma. Description: Cell Proliferation Inhibition Assay (14C-thymidine incorporation), HeLa. Type of assay: cell-based. The note with it: Homo sapiens. From the text:
(§5) The ability of a test compound to inhibit unregulated cell proliferation may be determined by measuring incorporation of ^14C-labelled thymidine into newly synthesized DNA within cell lines derived from carcinomas originating from several tissues. Accordingly, the anti-proliferative effect of a compound on cells with a variety of phenotypes may be determined.
(§6) Carcinoma cell lines include those such as HeLa cervical adenocarcinoma (American Type Culture Collection (ATCC), Virginia, Cat. #CCL-2), A375 malignant melanoma (ATCC CRL-1619), SK-OV-3 ovarian adenocarcinoma (ATCC HTB-77), HCT-116 colon carcinoma (CCL-247), PC-3 prostate adenocarcinoma (ATCC CRL-1435), and MDA-MB-231 (Xenogen Corp.)
(§7) The carcinoma cells are trypsinized and counted. The cells (3000-8000 count) are added to each well of a 96-well CytoStar tissue culture treated scintillating microplate (Amersham #RPNQ0160) in complete medium (100 μL) and the plate is then incubated in complete medium for 24 hrs at 37° C. in an inert atmosphere containing 5% CO2. Test compound (1 μL) in 100% DMSO is added to the plate test-wells with DMSO only added to control-wells. The plate is incubated in complete medium for a second 24 hr period at 37° C. in an atmosphere containing 5% CO2.
(§8) An aliquot of a solution of Methyl ^14C-thymidine (56 mC/mmol) (NEN #NEC568 or Amersham #CFA532) and complete medium (20 uL to provide 0.2 μCi/well) is then added to each well and the plate is incubated for a third 24 hr period at 37° C. in an atmosphere containing 5% CO2. The plate contents are then discarded, the plate is washed twice with PBS (200 μL) and then PBS (200 μL) is added to each well. The plate is sealed and the degree of methyl ^14C-thymidine incorporation is quantified on a Packard Top Count.

The next assay has as its system HCT-116 colon carcinoma. The assay is described as follows: Cell Proliferation Inhibition Assay (14C-thymidine incorporation), HCT-116. Type of assay: cell-based. To be noted: Homo sapiens.
Source text: as §5, §6, §7, §8

A further assay has as its system A375 malignant melanoma. Description: Cell Proliferation Inhibition Assay (14C-thymidine incorporation), A375. It counts as cell-based. To be noted: Homo sapiens, A-375.
Source text: as §5, §6, §7, §8

Where only a bound is given, the exact number is not on record here.

T1 sequence (P00533 669-1210 limits assumed): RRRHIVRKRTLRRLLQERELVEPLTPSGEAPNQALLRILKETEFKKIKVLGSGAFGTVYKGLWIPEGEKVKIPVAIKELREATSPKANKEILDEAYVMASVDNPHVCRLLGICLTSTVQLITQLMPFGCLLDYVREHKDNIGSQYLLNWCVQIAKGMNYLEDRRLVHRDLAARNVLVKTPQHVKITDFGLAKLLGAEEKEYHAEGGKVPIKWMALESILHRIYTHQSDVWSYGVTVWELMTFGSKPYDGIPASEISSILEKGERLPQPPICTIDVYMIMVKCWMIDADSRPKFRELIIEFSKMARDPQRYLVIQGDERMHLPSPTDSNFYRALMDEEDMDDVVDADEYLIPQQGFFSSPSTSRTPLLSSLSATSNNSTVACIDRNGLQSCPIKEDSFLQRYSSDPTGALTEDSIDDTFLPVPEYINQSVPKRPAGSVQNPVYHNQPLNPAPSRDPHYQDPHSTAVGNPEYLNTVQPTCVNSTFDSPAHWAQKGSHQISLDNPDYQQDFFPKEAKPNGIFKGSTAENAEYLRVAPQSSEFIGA
Sequence of VEGFR2 (O08775 786-1343): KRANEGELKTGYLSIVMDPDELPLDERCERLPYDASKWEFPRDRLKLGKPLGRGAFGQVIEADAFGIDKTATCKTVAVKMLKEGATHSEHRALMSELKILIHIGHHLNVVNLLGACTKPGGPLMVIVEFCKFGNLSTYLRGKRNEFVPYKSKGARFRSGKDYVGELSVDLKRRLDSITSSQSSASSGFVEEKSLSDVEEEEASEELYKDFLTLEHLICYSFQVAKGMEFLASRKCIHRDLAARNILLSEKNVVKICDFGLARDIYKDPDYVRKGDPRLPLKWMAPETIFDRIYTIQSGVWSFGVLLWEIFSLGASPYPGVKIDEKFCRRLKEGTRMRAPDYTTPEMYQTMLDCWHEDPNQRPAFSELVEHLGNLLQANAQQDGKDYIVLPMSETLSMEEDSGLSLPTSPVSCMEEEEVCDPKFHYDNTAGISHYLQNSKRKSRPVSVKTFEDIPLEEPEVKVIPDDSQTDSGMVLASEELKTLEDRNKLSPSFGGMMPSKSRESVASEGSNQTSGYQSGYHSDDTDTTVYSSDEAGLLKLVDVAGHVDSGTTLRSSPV
T2 sequence (P06493 whole entry): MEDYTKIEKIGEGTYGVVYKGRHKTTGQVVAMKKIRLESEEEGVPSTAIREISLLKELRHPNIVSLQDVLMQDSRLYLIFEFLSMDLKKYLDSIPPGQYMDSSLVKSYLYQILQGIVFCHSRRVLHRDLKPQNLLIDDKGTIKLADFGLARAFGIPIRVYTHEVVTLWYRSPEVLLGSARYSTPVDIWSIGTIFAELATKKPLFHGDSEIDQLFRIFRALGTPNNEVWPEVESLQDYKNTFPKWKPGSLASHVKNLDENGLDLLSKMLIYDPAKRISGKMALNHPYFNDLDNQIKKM
T2 sequence (P14635 whole entry partner): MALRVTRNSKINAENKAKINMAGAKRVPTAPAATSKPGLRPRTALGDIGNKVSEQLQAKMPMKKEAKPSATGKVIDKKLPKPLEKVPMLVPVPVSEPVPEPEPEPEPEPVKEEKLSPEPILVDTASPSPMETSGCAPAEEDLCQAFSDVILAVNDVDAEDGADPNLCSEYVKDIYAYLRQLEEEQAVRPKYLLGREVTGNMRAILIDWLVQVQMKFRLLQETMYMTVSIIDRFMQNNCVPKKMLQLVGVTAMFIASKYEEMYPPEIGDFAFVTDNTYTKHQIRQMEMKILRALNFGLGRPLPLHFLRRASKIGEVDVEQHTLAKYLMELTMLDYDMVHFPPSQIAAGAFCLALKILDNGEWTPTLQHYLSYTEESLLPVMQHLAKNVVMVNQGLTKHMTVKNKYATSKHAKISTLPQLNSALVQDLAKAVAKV

Consider `O=S(=O)(NCCO)c1ccc(Nc2nc(Nc3ccc(C(F)(F)F)cc3)c3cn[nH]c3n2)cc1` [Cpd 10, N-(2-hydroxy-ethyl)-4-[4-(4-trifluoromethyl-phenylamino)-1H-pyrazolo[3,4-d]pyrimidin-6-ylamino]-benzenesulfonamide], for which the inhibition at 2 µM at EGFR stood at 31%. Besides, the IC50 at CDK1 came out at 1.52 µM; against CDK2 it was 0.377 µM; against VEGFR2, 3.49 µM; in assay [1], 3.4 µM; with HCT-116 colon carcinoma, 10 µM; in the assay with A375 malignant melanoma, 1 µM.
Regarding `O=S(=O)(NCCO)c1ccc(Nc2nc(Nc3ccc(S(=O)(=O)NCCO)cc3)c3cn[nH]c3n2)cc1` [Cpd 3, N^4,N^6-bis-{4-[(2-hydroxy-ethyl)-amino-sulfonyl]-phenyl}-1H-pyrazolo[3,4-d]pyrimidine-4,6-diamine], the inhibition at 2 µM against EGFR was found to be 78%. For the same compound, the IC50 against CDK1 was 0.079 µM; on CDK2, 0.018 µM; on VEGFR2, 0.328 µM; in assay [1] it was 10 µM; in the assay with HCT-116 colon carcinoma, 100 µM; with A375 malignant melanoma, 32.6 µM.
In the case of `c1cc2cc(Nc3nc(Nc4ccc5[nH]ccc5c4)c4cn[nH]c4n3)ccc2[nH]1` [Cpd 13, N^4,N^6-bis-(1H-indol-5-yl)-1H-pyrazolo[3,4-d]pyrimidine-4,6-diamine], the inhibition at 2 µM at EGFR was -4%. Besides, the half-inhibitory concentration (IC50) against CDK1 is 2.59 µM; against CDK2, 0.494 µM; on VEGFR2 it was 3.67 µM; in assay [1] it was 4 µM; in the assay on HCT-116 colon carcinoma it was 2.6 µM; in the assay on A375 malignant melanoma, 1.9 µM.
On to `CC(=O)n1ncc2c(Nc3ccc(S(=O)(=O)NCCO)cc3)nc(Nc3ccc(S(=O)(=O)NCCO)cc3)nc21` [Cpd 21, 1-acetyl-N^4,N^6-bis-{4-[(2-hydroxy-ethyl)-amino-sulfonyl]-phenyl}-1H-pyrazolo[3,4-d]pyrimidine-4,6-diamine], for which the inhibition at 2 µM at EGFR came to 53%. For the same compound, the IC50 at CDK1 stood at 1.87 µM; against CDK2 it was 0.533 µM; on VEGFR2, 13.2 µM; in assay [1], 100 µM; with HCT-116 colon carcinoma, 100 µM; with A375 malignant melanoma, 100 µM.
As to `O=S(=O)(NCCO)c1ccc(Nc2nc(Nc3ccc(S(=O)(=O)NCCO)cc3)c3cnoc3n2)cc1` [Cpd 19, N^4,N^6-bis-{4-[(2-hydroxy-ethyl)-amino-sulfonyl]-phenyl}-isoxazolo[5,4-d]pyrimidine-4,6-diamine], the inhibition at 2 µM against EGFR was found to be 12%. Also, the IC50 was greater than 100 µM against CDK1; 9.18 µM on CDK2; 75 µM against VEGFR2; 100 µM in assay [1]; 100 µM with HCT-116 colon carcinoma; 100 µM in the assay with A375 malignant melanoma.
Regarding `c1cc2[nH]ncc2cc1Nc1nc(Nc2ccc3[nH]ncc3c2)c2cn[nH]c2n1` [Cpd 9, N^4,N^6-bis-(1H-indazol-5-yl)-1H-pyrazolo[3,4-d]pyrimidine-4,6-diamine], on EGFR, the inhibition at 2 µM was found to be 47%. Further, the half-inhibitory concentration (IC50) amounted to 0.145 µM against CDK1; 0.04 µM against CDK2; 0.43 µM on VEGFR2; 100 µM in assay [1]; 100 µM with HCT-116 colon carcinoma; 100 µM with A375 malignant melanoma.
As to `NS(=O)(=O)c1ccc(Nc2nc(Nc3ccccn3)c3cnoc3n2)cc1` [Cpd 7, 4-[4-(pyridin-2-ylamino)-isoxazolo[5,4-d]pyrimidin-6-ylamino]-benzenesulfonamide], on EGFR, the inhibition at 2 µM amounted to 21%. For the same compound, the 50% inhibitory concentration (IC50) on CDK1 was greater than 100 µM; at CDK2 it was greater than 10 µM; on VEGFR2, greater than 100 µM; in assay [1], 100 µM; with HCT-116 colon carcinoma, 10 µM; in the assay on A375 malignant melanoma, 100 µM.
As to `O=S(=O)(NCCO)c1ccc(Nc2nc(Nc3ccc(S(=O)(=O)NCCO)cc3)c3cnn(C4CCCCC4)c3n2)cc1` [Cpd 17, 1-cyclohexyl-N^4,N^6-bis-{4-[(2-hydroxy-ethyl)-amino-sulfonyl]-phenyl}-1H-pyrazolo[3,4-d]pyrimidine-4,6-diamine], on EGFR, the inhibition at 2 µM came out at 22%. The IC50 against CDK1 was determined as 12 µM; at CDK2 it was 3.88 µM; on VEGFR2, 90 µM; in assay [1], 100 µM; in the assay on HCT-116 colon carcinoma, 100 µM; in the assay with A375 malignant melanoma, 100 µM.
